Numbered stars: 1 amine (or outer) side, 2 acyl side, 3 side chain; on linkers, the order of the positions; unused ones are H or OH. Square brackets hold non-standard residues; d marks the D form. Peptide text beside a SMILES is read from it. * marks the point of attachment. Phe(ψ(S)CH(OH)CH2N)Pro = O=C([C@@H]1CCCN1C[C@H](O)[C@H](Cc1ccccc1)N[*:1])[*:2]; X1 = CC(C)CC(C[C@H](O)[C@H](CC1CCCCC1)N[*:1])C(=O)[*:2]; Nle = CCCC[C@H](N)C(=O)O; Orn = NCCC[C@H](N)C(=O)O; Boc = CC(C)(C)OC(=O)*
Legend:
[1] = Binding affinity against Xylose isomerase
[2] = Binding affinity against TP isomerase
[3] = Binding affinity against Endothiapepsin
[4] = target: T1, Thermolysin (Bacillus thermoproteolyticus) (UniProt P00800); test: Binding affinity against Thermolysin
T1 sequence (whole entry): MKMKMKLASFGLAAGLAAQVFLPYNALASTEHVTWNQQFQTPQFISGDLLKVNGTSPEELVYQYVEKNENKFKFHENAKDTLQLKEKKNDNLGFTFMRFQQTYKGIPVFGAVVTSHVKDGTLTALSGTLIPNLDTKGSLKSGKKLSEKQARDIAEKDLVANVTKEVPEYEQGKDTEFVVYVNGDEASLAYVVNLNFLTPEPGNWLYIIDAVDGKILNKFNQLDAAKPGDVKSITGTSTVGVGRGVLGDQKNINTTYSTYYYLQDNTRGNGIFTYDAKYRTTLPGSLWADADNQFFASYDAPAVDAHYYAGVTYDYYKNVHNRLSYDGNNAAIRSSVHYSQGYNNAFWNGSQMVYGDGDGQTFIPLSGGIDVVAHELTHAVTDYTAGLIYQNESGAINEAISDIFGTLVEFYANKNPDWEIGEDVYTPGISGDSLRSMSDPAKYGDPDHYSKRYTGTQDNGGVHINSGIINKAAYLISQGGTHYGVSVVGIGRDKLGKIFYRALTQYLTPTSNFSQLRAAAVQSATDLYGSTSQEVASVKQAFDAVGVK

[5] = target: Human immunodeficiency virus type 1 protease (Human immunodeficiency virus 1) (UniProt Q72874); test: Affinity for HIV Protease
[6] = Binding affinity against Histidine-binding protein
[7] = target: Serine protease 1 (Homo sapiens) (UniProt P07477); test: Binding affinity against trypsin
Chain of Serine protease 1 (Homo sapiens) (P07477 whole entry): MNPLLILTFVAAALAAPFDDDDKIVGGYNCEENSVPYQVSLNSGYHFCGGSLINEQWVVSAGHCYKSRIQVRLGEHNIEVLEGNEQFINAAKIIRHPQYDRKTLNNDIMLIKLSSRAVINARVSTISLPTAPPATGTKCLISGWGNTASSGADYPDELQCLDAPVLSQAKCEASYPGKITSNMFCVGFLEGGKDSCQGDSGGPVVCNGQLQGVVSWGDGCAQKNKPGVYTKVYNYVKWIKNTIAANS

Trypsin II (Bos taurus) = target: T2, Trypsin II (Bos taurus) (UniProt Q29463); test: log Kd (Binding affinity against specified protein) value of the compound
T2 sequence (whole entry): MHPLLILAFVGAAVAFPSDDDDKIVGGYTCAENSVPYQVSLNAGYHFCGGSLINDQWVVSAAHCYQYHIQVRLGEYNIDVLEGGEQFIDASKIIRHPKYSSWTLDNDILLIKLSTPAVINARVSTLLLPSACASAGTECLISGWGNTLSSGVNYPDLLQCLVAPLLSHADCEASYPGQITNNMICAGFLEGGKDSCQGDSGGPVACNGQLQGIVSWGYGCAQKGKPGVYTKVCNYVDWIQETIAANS

[8] = test system: Purine nucleoside phosphorylase; test: Binding affinity against Purine Nucleoside Phosphorylase
[9] = Binding affinity against FK506 binding protein
[10] = Binding affinity against Arabinose binding protein of the compound
[11] = Binding affinity against Penicillopepsin
[12] = Binding affinity against immunoglobulin
[13] = Binding affinity against Neuraminidase
[14] = target: T3, Fatty acid-binding protein, intestinal (Homo sapiens) (UniProt P12104); test: Binding affinity against Fatty acid-binding protein
T3 sequence (whole entry): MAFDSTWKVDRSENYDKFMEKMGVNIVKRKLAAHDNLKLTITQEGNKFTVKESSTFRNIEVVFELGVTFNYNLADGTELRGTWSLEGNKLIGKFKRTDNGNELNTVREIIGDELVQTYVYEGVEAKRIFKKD

[15] = Binding affinity against enolase
[16] = Binding affinity against Glucoamylase
[17] = Binding affinity against Glucose binding protein
[18] = target: T4, Mast cell carboxypeptidase A (Homo sapiens) (UniProt P15088); test: Binding affinity against Carboxypeptidase A
T4 sequence (whole entry): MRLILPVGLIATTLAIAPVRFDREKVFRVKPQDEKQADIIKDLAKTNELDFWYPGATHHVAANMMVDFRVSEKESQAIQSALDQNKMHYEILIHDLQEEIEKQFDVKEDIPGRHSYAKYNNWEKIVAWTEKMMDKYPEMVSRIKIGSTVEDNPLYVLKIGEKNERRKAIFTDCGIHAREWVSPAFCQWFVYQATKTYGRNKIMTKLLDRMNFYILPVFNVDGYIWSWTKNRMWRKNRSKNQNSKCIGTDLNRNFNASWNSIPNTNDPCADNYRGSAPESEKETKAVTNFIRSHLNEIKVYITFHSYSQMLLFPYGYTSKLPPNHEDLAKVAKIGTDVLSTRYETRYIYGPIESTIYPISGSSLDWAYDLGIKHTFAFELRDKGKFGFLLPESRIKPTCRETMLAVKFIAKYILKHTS

[19] = Binding affinity against Retinol-binding protein

OC[C@@H](O)[C@H](O)[C@@H](O)CO
Log Kd [1]: -5.83

O=C(O)COP(=O)(O)O
Log Kd [2]: -4.82

CC(C)N(C[C@H](O)[C@H](CC1CCCCC1)NC(=O)[C@H](Cc1c[nH]cn1)NC(=O)[C@H](Cc1ccccc1)NC(=O)OC(C)(C)C)C(=O)N[C@@H](CCCCN)C(=O)N[C@@H](Cc1ccccc1)C(=O)O
Log Kd [3]: -6.58

CC(C)C[C@H](N)C(=O)NO
Log Kd [4]: -3.72

CC[C@H](C)[C@H](NC(=O)[C@@H](NC[C@H](CC(C)C)NC(=O)[C@H](Cc1c[nH]cn1)NC(=O)[C@H](Cc1ccccc1)NC(=O)[C@@H]1CCCN1C(=O)[C@H](Cc1c[nH]cn1)NC(=O)[C@@H]1CCCN1)C(C)C)C(=O)N[C@@H](Cc1c[nH]cn1)C(=O)N[C@@H](CCCCN)C(=O)O
Log Kd [3]: -6.8

CC(C)[C@H](NC(=O)N(C)Cc1ccccn1)C(=O)N[C@@H](Cc1ccccc1)[C@H](O)[C@H](O)[C@H](Cc1ccccc1)NC(=O)[C@@H](NC(=O)N(C)Cc1ccccn1)C(C)C
Log Kd [5]: -10.1

O=C(N[C@H]1c2ccccc2C[C@H]1O)[C@H](Cc1ccccc1)CC(O)C[C@@H](Cc1ccccc1)C(=O)N[C@H]1c2ccccc2C[C@H]1O
Log Kd [5]: -9.15

CC(C)C[C@H](NP(=O)(O)O[C@@H]1O[C@@H](C)[C@H](O)[C@@H](O)[C@H]1O)C(=O)N[C@@H](Cc1c[nH]c2ccccc12)C(=O)O
Log Kd [4]: -7.56

CCC(C)CNC(=O)C(CC(C)C)CC(O)C(CC1CCCCC1)NC(=O)C(Cc1c[nH]cn1)NC(=O)C(Cc1cccc2ccccc12)Cc1cccc2ccccc12 (centres undefined)
Log Kd [3]: -6.63

CC1(C)SC(C(NC(=O)Cc2ccccc2)C(=O)NCc2ccccc2)NC1C(=O)NC(CO)Cc1ccccc1 (centres undefined)
Log Kd [5]: -8.1

O=[N+]([O-])Nc1ccccc1
Log Kd [4]: -6.37

N[C@@H](Cc1c[nH]cn1)C(=O)O
Log Kd [6]: -7.31

CC(C)C[C@H](NC(CCc1ccccc1)C(=O)O)C(=O)N[C@@H](Cc1c[nH]c2ccccc12)C(=O)O (some centres undefined)
Log Kd [4]: -7.13

CC(C)[C@H](N)C(=O)N[C@@H](Cc1c[nH]c2ccccc12)C(=O)O (H-Val-Trp-OH)
Log Kd [4]: -5.91

N=C(N)c1ccccc1
Log Kd [7]: -4.74 | Log Kd (Trypsin II (Bos taurus)): -1.83

CC(C)C[C@H](NP(=O)(O)O)C(N)=O
Log Kd [4]: -5.89

CC[C@H](C)[C@H](NC(=O)[C@@H]1CCCN1C[C@H](O)[C@H](Cc1ccccc1)NC(=O)[C@H](CC(N)=O)NC(=O)[C@H](CC(C)C)NC(=O)[C@H](CO)NC(C)=O)C(=O)N[C@H](C(=O)OC)C(C)C (Ac-SLN[Phe(ψ(S)CH(OH)CH2N)Pro]IV-OMe)
Log Kd [5]: -9.63

CC[C@H](C)[C@@H](NC(=O)[C@@H](C[C@H](O)[C@H](CC(C)C)NC(=O)[C@H](Cc1c[nH]cn1)NC(=O)[C@H](Cc1ccccc1)NC(=O)[C@@H]1CCCN1C(=O)[C@@H](N)Cc1c[nH]cn1)C(C)C)C(=O)N[C@@H](Cc1c[nH]cn1)C(=O)O
Log Kd [3]: -9.02

O=P(O)(O)OP(=O)(O)OP(=O)(O)OP(=O)(O)OP(=O)(O)OC[C@H]1O[C@@H](n2cnc3cncnc32)[C@H](O)[C@@H]1O
Log Kd [8]: -5.96

C=CC[C@@H]1/C=C(\C)C[C@H](C)C[C@H](OC)[C@H]2O[C@@](O)(C(=O)C(=O)N3CCCC[C@H]3C(=O)O[C@H](/C(C)=C/[C@@H]3CC[C@@H](O)[C@H](OC)C3)[C@H](C)[C@@H](O)CC1=O)[C@H](C)C[C@@H]2OC
Log Kd [9]: -9.7

C[C@@H](O)[C@H](NC(=O)[C@@H]1CCCN1)C(=O)N[C@@H](CCC(=O)O)C(=O)N[C@H](CN[C@@H](Cc1ccccc1)C(=O)N[C@@H](CCCN=C(N)N)C(=O)N[C@@H](CCC(=O)O)C(=O)O)Cc1ccccc1
Log Kd [3]: -7.22

OC[C@H]1O[C@@H](O)[C@H](O)[C@@H](O)[C@H]1O
Log Kd [10]: -6.65

CCOC(=O)CC(OP(=O)(O)O)C(CC(C)C)NC(=O)[C@@H](NC(=O)[C@@H](NC(=O)CC(C)C)C(C)C)C(C)C (some centres undefined)
Log Kd [11]: -7.66

N#Cc1ccc(NC(=N)NC(c2ccccc2)c2ccccc2)cc1
Log Kd [12]: -7.28

CCOC(=O)CC(O)C(CC(C)C)NC(=O)[C@@H](NC(=O)[C@@H](NC(=O)CC(C)C)C(C)C)C(C)C (some centres undefined)
Log Kd [11]: -7.71

CC(C)CN(C[C@@H](O)[C@H](Cc1ccccc1)NC(=O)O[C@H]1CCOC1)S(=O)(=O)c1ccc(N)cc1
Log Kd [5]: -9.23

CC(=O)N[C@H]1[C@H]([C@H](O)[C@H](O)CO)OC(C(=O)O)=C[C@@H]1O
Log Kd [13]: -5.31

CC(C)C[C@H](NC(=O)C[C@H](O)[C@H](CC1CCCCC1)NC(=O)CC[C@H](O)[C@H](Cc1ccccc1)NC(=O)OC(C)(C)C)C(=O)NCc1cccc(CN)c1
Log Kd [3]: -4.8

OC1OC[C@H](O)[C@H](O)[C@H]1O (some centres undefined)
Log Kd [10]: -7.03

CC(C)[C@H](NC(=O)N(C)Cc1ccccn1)C(=O)N[C@@H](Cc1ccccc1)C[C@@H](O)[C@H](Cc1ccccc1)NC(=O)[C@@H](NC(=O)N(C)Cc1ccccn1)C(C)C
Log Kd [5]: -10.5

CCCCCCCCCCCCCCCC(=O)O
Log Kd [14]: -5.43

O=C(CP(=O)(O)O)NO
Log Kd [15]: -10.8

O=C1N(Cc2ccc3ccccc3c2)[C@H](Cc2ccccc2)[C@H](O)[C@@H](O)[C@@H](Cc2ccccc2)N1Cc1ccc2ccccc2c1
Log Kd [5]: -9.52

OC[C@H]1NC[C@H](O)[C@@H](O)[C@@H]1O
Log Kd [16]: -4.02

OC[C@H]1OC(O)[C@H](O)[C@@H](O)[C@@H]1O (some centres undefined)
Log Kd [17]: -7.6

C[C@H]1OC(O)[C@H](O)[C@@H](O)[C@H]1O (some centres undefined)
Log Kd [10]: -5.43

CC(C)[C@H](NC(=O)N(C)Cc1ccccn1)C(=O)N[C@@H](Cc1ccccc1)[C@@H](O)[C@H](O)[C@H](Cc1ccccc1)NC(=O)[C@@H](NC(=O)N(C)Cc1ccccn1)C(C)C
Log Kd [5]: -9.01

CC=O
Log Kd [5]: -8.41

CC(C)CC(C[C@H](O)[C@H](CC1CCCCC1)NC(=O)[C@H](Cc1c[nH]cn1)NC(=O)[C@H](Cc1ccccc1)NC(=O)OC(C)(C)C)C(=O)N[C@@H](CCCCN)C(=O)N[C@@H](Cc1ccccc1)C(=O)O (some centres undefined) (Boc-FH[X1]KF-OH)
Log Kd [3]: -7.11

NCCCC[C@H](NC(=O)CN)C(=O)O (H-Gly-Lys-OH)
Log Kd [18]: -3.89

COC(=O)[C@@H](NC(=O)[C@@H](NC(=O)[C@H](C)N1CCC([C@H](C)NC(=O)[C@H](C)N)=C[C@@H](Cc2ccccc2)C1)C(C)C)C(C)C
Log Kd [5]: -6.37

NCCCCc1ccccc1
Log Kd [7]: -1.7

CC(C)[C@H](NC(=O)N(C)Cc1ccccn1)C(=O)N[C@@H](Cc1ccccc1)C(O)C(O)[C@H](Cc1ccccc1)NC(=O)[C@@H](NC(=O)N(C)Cc1ccccn1)C(C)C (single isomer, unassigned)
Log Kd [5]: -10.1

O=P(O)(O)OP(=O)(O)OP(=O)(O)OP(=O)(O)OC[C@H]1O[C@@H](n2cnc3cncnc32)[C@H](O)[C@@H]1O
Log Kd [8]: -5.85

CC1(C)SC(C(NC(=O)Cc2ccccc2)C(=O)NCc2ccccc2)NC1C(=O)NC(Cc1ccccc1)C(O)CC(=O)NCC1=NC2C=CC=CC2=N1 (centres undefined)
Log Kd [5]: -9.69

O=P(O)(O)OP(=O)(O)OC[C@H]1O[C@@H](n2cnc3cncnc32)[C@H](O)[C@@H]1O
Log Kd [8]: -6.22

CCCC[C@H](NC(=O)[C@H](CCCC)NC(=O)[C@@H](NC(=O)[C@@H](NC(C)=O)[C@@H](C)O)[C@@H](C)CC)C(=O)N[C@@H](CCCN)C(=O)N[C@@H](CCCN=C(N)N)C(N)=O (Ac-TI[Nle][Nle][Orn]R-NH2)
Log Kd [5]: -6.11

CC1=C(/C=C/C(C)=C/C=C/C(C)=C/CO)C(C)(C)CCC1
Log Kd [19]: -6.72
